Assay results reported in the CheMixHub viscosity set.
± gives the uncertainty stated by the source.

Assay: xn = mol fraction of the nth substance listed

CCOCCO + CCCCOC(C)=O
298.15 K, 101 kPa
Conditions	viscosity [mPa·s]
x1 = 0.0826	0.6948 ± 0.0092
x1 = 0.1249	0.7087 ± 0.0094
x1 = 0.1454	0.7178 ± 0.0095
x1 = 0.2182	0.7512 ± 0.0099
x1 = 0.3951	0.8537 ± 0.011
x1 = 0.4691	0.9144 ± 0.012
x1 = 0.502	0.9435 ± 0.012
x1 = 0.5174	0.9569 ± 0.013
x1 = 0.5604	0.9991 ± 0.013
x1 = 0.6488	1.101 ± 0.014
x1 = 0.7547	1.258 ± 0.016
x1 = 0.7674	1.276 ± 0.017
x1 = 0.7794	1.296 ± 0.017
x1 = 0.9079	1.564 ± 0.02
x1 = 0.9531	1.676 ± 0.022
x1 = 0.9678	1.72 ± 0.023

Oc1ccc(Cl)cc1 + CCO
Conditions	viscosity [mPa·s]
298.15 K, 101 kPa, x1 = 0.5	1.454 ± 0.014

CC(C)CCO + CC(C)CO
viscosity [mPa·s], 101 kPa
Conditions	x1 = 0.2	x1 = 0.4	x1 = 0.6	x1 = 0.8
293.15 K	4.048 ± 0.04	4.099 ± 0.04	4.163 ± 0.041	4.241 ± 0.041
313.15 K	2.178 ± 0.024	2.22 ± 0.024	2.27 ± 0.025	2.326 ± 0.025

CCOCCO + CC(C)CC(C)(C)C
viscosity [mPa·s], 101.33 kPa
Conditions	x1 = 0.0991	x1 = 0.1991	x1 = 0.2975	x1 = 0.4347	x1 = 0.4972	x1 = 0.6001	x1 = 0.6976	x1 = 0.7979	x1 = 0.8986
298.15 K	0.494 ± 0.014	0.536 ± 0.015	0.595 ± 0.016	0.692 ± 0.018	0.753 ± 0.019	0.862 ± 0.022	1.006 ± 0.025	1.179 ± 0.029	1.436 ± 0.034
303.15 K	0.466 ± 0.013	0.5 ± 0.014	0.552 ± 0.015	0.648 ± 0.017	0.694 ± 0.018	0.797 ± 0.02	0.913 ± 0.023	1.086 ± 0.027	1.292 ± 0.031
308.15 K	0.439 ± 0.013	0.475 ± 0.013	0.517 ± 0.014	0.601 ± 0.016	0.642 ± 0.017	0.738 ± 0.019	0.839 ± 0.021	0.993 ± 0.025	1.167 ± 0.028
313.15 K	0.415 ± 0.012	0.445 ± 0.013	0.483 ± 0.014	0.56 ± 0.015	0.597 ± 0.016	0.677 ± 0.018	0.767 ± 0.02	0.901 ± 0.023	1.066 ± 0.026

CCCC[P+](CCCC)(CCCC)CCCC.[Br-] + O
Conditions	viscosity [mPa·s]
308.15 K, 101 kPa, x1 = 0.08254	6.085 ± 0.2

[Ba+2].[Cl-].[Cl-] + O
viscosity [mPa·s], 101.3 kPa
Conditions	x1 = 0.0009	x1 = 0.0018	x1 = 0.00893	x1 = 0.0125	x1 = 0.0177	x1 = 0.02116	x1 = 0.02631
293.15 K	1.016 ± 0.022	1.027 ± 0.022	1.123 ± 0.024	1.174 ± 0.025	1.261 ± 0.027	1.325 ± 0.028	1.43 ± 0.03
298.15 K	0.9041 ± 0.019	0.9144 ± 0.019	1.005 ± 0.021	1.053 ± 0.022	1.134 ± 0.024	1.194 ± 0.025	1.29 ± 0.027
303.15 K	0.8105 ± 0.017	0.8204 ± 0.017	0.9062 ± 0.019	0.9513 ± 0.02	1.027 ± 0.022	1.082 ± 0.023	1.171 ± 0.025
308.15 K	0.7315 ± 0.015	0.7405 ± 0.016	0.8219 ± 0.017	0.8637 ± 0.018	0.9352 ± 0.02	0.9867 ± 0.021	1.069 ± 0.023
318.15 K	0.6068 ± 0.013	0.6141 ± 0.013	0.688 ± 0.015	0.725 ± 0.015	0.788 ± 0.017	0.8328 ± 0.018	0.9047 ± 0.019

Cc1cccc(Cl)c1 + OC1CCCCC1
303.15 K, 101 kPa
Conditions	viscosity [mPa·s]
x2 = 0.1126	5.006 ± 0.6
x2 = 0.222	9.158 ± 1.1
x2 = 0.3285	13.26 ± 1.6
x2 = 0.4321	17.37 ± 2.1
x2 = 0.533	21.44 ± 2.6
x2 = 0.6313	25.48 ± 3.1
x2 = 0.727	29.41 ± 3.6
x2 = 0.8203	33.31 ± 4
x2 = 0.9113	37.2 ± 4.5

CCOCCO + C=C(C)C(=O)OC
viscosity [mPa·s], 101.3 kPa
Conditions	298.15 K	308.15 K
x2 = 0.0533	1.64 ± 0.01	1.305 ± 0.008
x2 = 0.154	1.402 ± 0.009	1.146 ± 0.008
x2 = 0.2467	1.225 ± 0.008	1.022 ± 0.007
x2 = 0.3554	1.059 ± 0.007	0.9 ± 0.006
x2 = 0.4551	0.937 ± 0.006	0.807 ± 0.006
x2 = 0.4993	0.89 ± 0.006	0.77 ± 0.005
x2 = 0.5543	0.838 ± 0.006	0.727 ± 0.005
x2 = 0.6547	0.758 ± 0.005	0.658 ± 0.005
x2 = 0.7547	0.693 ± 0.005	0.6 ± 0.004
x2 = 0.8858	0.628 ± 0.004	0.537 ± 0.004
x2 = 0.9532	0.603 ± 0.004	0.517 ± 0.004

CCn1cc[n+](C)c1.[Cl-] + CN(C)C=O
308.15 K, 101 kPa
Conditions	viscosity [mPa·s]
x1 = 0.0524	1.045 ± 0.11
x1 = 0.0867	1.355 ± 0.13
x1 = 0.1232	1.705 ± 0.15

CCOCCO + CCCCCCCO
298.15 K, 101 kPa
Conditions	viscosity [mPa·s]
x1 = 0.1253	4.967 ± 0.046
x1 = 0.2438	4.207 ± 0.048
x1 = 0.3559	3.655 ± 0.049
x1 = 0.4623	3.23 ± 0.049
x1 = 0.5632	2.902 ± 0.05
x1 = 0.6592	2.617 ± 0.05
x1 = 0.7505	2.383 ± 0.05
x1 = 0.8376	2.2 ± 0.049
x1 = 0.9207	2.041 ± 0.049

CCOCCO + OCCO
Conditions	viscosity [mPa·s]
293.15 K, 101 kPa, x1 = 0.0582	18.48 ± 0.12
293.15 K, 101 kPa, x1 = 0.0952	16.68 ± 0.11
293.15 K, 101 kPa, x1 = 0.2037	11.81 ± 0.076
293.15 K, 101 kPa, x1 = 0.3098	7.965 ± 0.051
293.15 K, 101 kPa, x1 = 0.4062	5.445 ± 0.036
293.15 K, 101 kPa, x1 = 0.4503	4.568 ± 0.031
293.15 K, 101 kPa, x1 = 0.5003	3.813 ± 0.025
293.15 K, 101 kPa, x1 = 0.5413	3.301 ± 0.022
293.15 K, 101 kPa, x1 = 0.5988	2.777 ± 0.018
293.15 K, 101 kPa, x1 = 0.6952	2.401 ± 0.016
293.15 K, 101 kPa, x1 = 0.8031	2.264 ± 0.015
293.15 K, 101 kPa, x1 = 0.9002	2.143 ± 0.014
293.15 K, 101 kPa, x1 = 0.9508	2.121 ± 0.013
293.15 K, 101.33 kPa, x2 = 0.0923	2.519 ± 0.02
293.15 K, 101.33 kPa, x2 = 0.2349	3.38 ± 0.026
293.15 K, 101.33 kPa, x2 = 0.3267	4.07 ± 0.031
293.15 K, 101.33 kPa, x2 = 0.4103	4.91 ± 0.037
293.15 K, 101.33 kPa, x2 = 0.4957	6.008 ± 0.043
293.15 K, 101.33 kPa, x2 = 0.5486	6.84 ± 0.048
293.15 K, 101.33 kPa, x2 = 0.6451	8.722 ± 0.058
293.15 K, 101.33 kPa, x2 = 0.7319	10.9 ± 0.07
293.15 K, 101.33 kPa, x2 = 0.7782	12.29 ± 0.078
293.15 K, 101.33 kPa, x2 = 0.8336	14.04 ± 0.088
293.15 K, 101.33 kPa, x2 = 0.9075	16.88 ± 0.1
293.15 K, 101.33 kPa, x2 = 0.9556	19.08 ± 0.12
298.15 K, 101 kPa, x1 = 0.0423	15.82 ± 0.1
298.15 K, 101 kPa, x1 = 0.1127	13.26 ± 0.086
298.15 K, 101 kPa, x1 = 0.1983	10.12 ± 0.066
298.15 K, 101 kPa, x1 = 0.2953	7.192 ± 0.047
298.15 K, 101 kPa, x1 = 0.3988	4.883 ± 0.033
298.15 K, 101 kPa, x1 = 0.4532	4.022 ± 0.027
298.15 K, 101 kPa, x1 = 0.5005	3.474 ± 0.023
298.15 K, 101 kPa, x1 = 0.5429	3.085 ± 0.021
298.15 K, 101 kPa, x1 = 0.593	2.739 ± 0.018
298.15 K, 101 kPa, x1 = 0.6905	2.349 ± 0.015
298.15 K, 101 kPa, x1 = 0.8044	2.188 ± 0.014
298.15 K, 101 kPa, x1 = 0.8963	2.021 ± 0.013
298.15 K, 101 kPa, x1 = 0.9496	1.94 ± 0.012
303.15 K, 101 kPa, x1 = 0.0596	12.4 ± 0.082
303.15 K, 101 kPa, x1 = 0.1011	11.29 ± 0.075
303.15 K, 101 kPa, x1 = 0.1976	8.571 ± 0.056
303.15 K, 101 kPa, x1 = 0.3002	5.937 ± 0.04
303.15 K, 101 kPa, x1 = 0.3989	4.122 ± 0.028
303.15 K, 101 kPa, x1 = 0.4504	3.447 ± 0.023
303.15 K, 101 kPa, x1 = 0.4926	2.988 ± 0.02
303.15 K, 101 kPa, x1 = 0.5502	2.554 ± 0.017
303.15 K, 101 kPa, x1 = 0.6034	2.237 ± 0.015
303.15 K, 101 kPa, x1 = 0.7013	1.974 ± 0.013
303.15 K, 101 kPa, x1 = 0.8026	1.954 ± 0.013
303.15 K, 101 kPa, x1 = 0.8923	1.933 ± 0.012
303.15 K, 101 kPa, x1 = 0.9401	1.883 ± 0.012

O=S(=O)([O-])c1ccc(Cl)cc1.[Na+] + O
viscosity [mPa·s], 101 kPa
Conditions	x1 = 9e-05	x1 = 0.00018	x1 = 0.0009	x1 = 0.0018	x1 = 0.00448	x1 = 0.00893	x1 = 0.0133	x1 = 0.0177
298.15 K	0.899 ± 0.009	0.9 ± 0.009	0.916 ± 0.009	0.939 ± 0.01	1 ± 0.01	1.103 ± 0.011	1.219 ± 0.013	–
318.15 K	0.598 ± 0.006	0.599 ± 0.006	0.608 ± 0.006	0.623 ± 0.006	0.659 ± 0.006	0.723 ± 0.007	0.793 ± 0.008	0.869 ± 0.008
